This passage reports T/C results from PubChem BioAssay AID248 (DTP/NCI, 2004).

This test concerns L1210 leukemia ip in BDF1 mice, survival T/C. Nature of the test: NCI In Vivo Anticancer Drug Screen. Data for tumor model L1210 Leukemia (intraperitoneal) in B6D2F1 (BDF1) mice. Conditions: endpoint: mean survival time, higher = longer survival. The gist of the method:
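Transplantable tumor model; survival measured in treated vs vehicle control mice. Value = treated/control.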

The mark [1] stands for this setting: dose: 100.0 mg/kg/injection, schedule: Q01DX001 (ip), vehicle: saline with Tween-80.
Setting [2] is: dose: 200.0 mg/kg/injection, schedule: Q01DX001 (ip), vehicle: saline with Tween-80.
The mark [3] stands for this setting: dose: 100.0 mg/kg/injection, schedule: Q04DX002 (ip), vehicle: Klucel (hydroxypropylcellulose) (HPC).
The mark [4] stands for this setting: dose: 100.0 mg/kg/injection, schedule: Q01DX009 (ip), vehicle: saline with Tween-80.
Where [5] appears, read: dose: 200.0 mg/kg/injection, schedule: Q01DX009 (ip), vehicle: saline with Tween-80.
[6] abbreviates: dose: 100.0 mg/kg/injection, schedule: Q01DX001 (ip), vehicle: Klucel (hydroxypropylcellulose) (HPC).
Where [7] appears, read: dose: 200.0 mg/kg/injection, schedule: Q01DX001 (ip), vehicle: Klucel (hydroxypropylcellulose) (HPC).
Setting [8] is: dose: 400.0 mg/kg/injection, schedule: Q01DX001 (ip), vehicle: Klucel (hydroxypropylcellulose) (HPC).

Where “and” joins values, the source holds several entries; their conditions need not be identical. Equal entries are not always repeated. Inconclusive results and toxic doses are left out.

Turning to `C[N+](C)(C)CCC[N+](C)(C)C`, the T/C runs as follows: (dose: 100.0 mg/kg/injection, schedule: Q01DX009 (ip), vehicle: saline) 108 % of control; (dose: 100.0 mg/kg/injection, schedule: Q04DX003 (ip), vehicle: saline) 107 % of control; (dose: 200.0 mg/kg/injection, schedule: Q01DX009 (ip), vehicle: saline) 106 % of control; (dose: 200.0 mg/kg/injection, schedule: Q04DX003 (ip), vehicle: saline) 92 % of control; (dose: 400.0 mg/kg/injection, schedule: Q01DX009 (ip), vehicle: saline) 106 % of control; (dose: 400.0 mg/kg/injection, schedule: Q04DX003 (ip), vehicle: saline) 100 % of control.

For `CCCCNC(=O)Nc1ccc(Nc2ccccc2)cc1`, the T/C is, setting by setting: (dose: 100.0 mg/kg/injection, schedule: Q01DX009 (ip), vehicle: gum acacia) 88 % of control; (dose: 100.0 mg/kg/injection, schedule: Q04DX003 (ip), vehicle: gum acacia) 88 % of control; (dose: 200.0 mg/kg/injection, schedule: Q01DX009 (ip), vehicle: gum acacia) 108 % of control; (dose: 200.0 mg/kg/injection, schedule: Q04DX003 (ip), vehicle: gum acacia) 96 % of control; (dose: 400.0 mg/kg/injection, schedule: Q04DX003 (ip), vehicle: gum acacia) 96 % of control.

With `CCN(CC)CC(=O)NCC(CCCCN1CCCC1)(c1cccc2ccccc12)C(C)C` (configuration not stated), the T/C was 104 % of control (dose: 6.25 mg/kg/injection, schedule: Q04DX003 (ip), vehicle: saline); 110 % of control (dose: 12.5 mg/kg/injection, schedule: Q04DX003 (ip), vehicle: saline); 93 % of control (dose: 25.0 mg/kg/injection, schedule: Q04DX003 (ip), vehicle: saline).

For `N#CCc1[nH]cnc1C#N`, the T/C runs as follows: (dose: 100.0 mg/kg/injection, schedule: Q04DX003 (ip), vehicle: water) 100 % of control and 111 % of control and 115 % of control; (dose: 200.0 mg/kg/injection, schedule: Q04DX003 (ip), vehicle: water) 95 % of control and 115 % of control; (dose: 300.0 mg/kg/injection, schedule: Q04DX003 (ip), vehicle: water) 113 % of control; (dose: 400.0 mg/kg/injection, schedule: Q04DX003 (ip), vehicle: water) 100 % of control (2×) and 122 % of control.

Regarding `C=CCC(CC)C(=O)NC(=O)N1CCCc2ccccc21` (configuration not stated), the T/C is, setting by setting: under setting [1], 91 % of control; under setting [2], 86 % of control.

As for `O=S(=O)(F)c1cc(Cl)c(S)c(Cl)c1`, the T/C (dose: 100.0 mg/kg/injection, schedule: Q01DX009 (ip), vehicle: Klucel (hydroxypropylcellulose) (HPC)) was 100 % of control.

Take `CC(OC(=O)c1ccc([N+](=O)[O-])cc1)C(C)(C)C` (configuration not stated): the T/C runs as follows: under setting [3], 109 % of control; (dose: 200.0 mg/kg/injection, schedule: Q04DX002 (ip), vehicle: Klucel (hydroxypropylcellulose) (HPC)) 123 % of control; (dose: 400.0 mg/kg/injection, schedule: Q04DX002 (ip), vehicle: Klucel (hydroxypropylcellulose) (HPC)) 113 % of control.

For the molecule `CNc1ccc(C(=O)C2CC2)cc1`, the T/C runs as follows: under setting [4], 92 % of control; (dose: 100.0 mg/kg/injection, schedule: Q04DX003 (ip), vehicle: saline with Tween-80) 100 % of control; under setting [5], 98 % of control; (dose: 200.0 mg/kg/injection, schedule: Q04DX003 (ip), vehicle: saline with Tween-80) 100 % of control; (dose: 400.0 mg/kg/injection, schedule: Q04DX003 (ip), vehicle: saline with Tween-80) 86 % of control.

With `CCCCOCCN`, the T/C reads like this: (dose: 12.5 mg/kg/injection, schedule: Q01DX009 (ip), vehicle: saline) 104 % of control; (dose: 25.0 mg/kg/injection, schedule: Q01DX009 (ip), vehicle: saline) 101 % of control; (dose: 50.0 mg/kg/injection, schedule: Q01DX009 (ip), vehicle: saline) 106 % of control.

Turning to `CC(C)Nc1nc(N)nc2nc(-c3ccc(Cl)cc3)c(-c3ccc(Cl)cc3)nc12`, the T/C is 100 % of control (dose: 100.0 mg/kg/injection, schedule: Q01DX001 (ip), vehicle: saline); 113 % of control (dose: 200.0 mg/kg/injection, schedule: Q01DX001 (ip), vehicle: saline); 107 % of control (dose: 400.0 mg/kg/injection, schedule: Q01DX001 (ip), vehicle: saline).

Turning to `CNC(=N)c1ccc(NC(=N)c2ccc(NC(=O)Nc3ccc(C(=N)Nc4ccc(C(=N)NC)cc4)cc3)cc2)cc1`, the T/C (dose: 0.25 mg/kg/injection, schedule: Q01DX Z (ip), vehicle: water) was 98 % of control; the T/C (dose: 0.5 mg/kg/injection, schedule: Q01DX Z (ip), vehicle: water) was 96 % of control; the T/C (dose: 1.0 mg/kg/injection, schedule: Q01DX Z (ip), vehicle: water) was 96 % of control; the T/C (dose: 1.87 mg/kg/injection, schedule: Q01DX Z (ip), vehicle: water) was 92 % of control; the T/C (dose: 2.0 mg/kg/injection, schedule: Q01DX Z (ip), vehicle: water) was 104 % of control; the T/C (dose: 3.75 mg/kg/injection, schedule: Q01DX Z (ip), vehicle: water) was 156 % of control. Besides, the T/C (dose: 7.0 mg/kg/injection, schedule: Q01DX Z (ip), vehicle: carboxymethylcellulose (CMC)) was 165 % of control; the T/C (dose: 7.5 mg/kg/injection, schedule: Q01DX Z (ip), vehicle: water) is 246 % of control; the T/C (dose: 10.0 mg/kg/injection, schedule: Q01DX Z (ip), vehicle: water) is 209 % of control; the T/C (dose: 14.0 mg/kg/injection, schedule: Q01DX Z (ip), vehicle: carboxymethylcellulose (CMC)) is 160 % of control; the T/C (dose: 25.0 mg/kg/injection, schedule: Q01DX Z (oral), vehicle: water) was 100 % of control; the T/C (dose: 50.0 mg/kg/injection, schedule: Q01DX Z (oral), vehicle: water) was 98 % of control. Moreover, the T/C (dose: 100.0 mg/kg/injection, schedule: Q01DX Z (oral), vehicle: water) was 104 % of control and the T/C (dose: 200.0 mg/kg/injection, schedule: Q01DX Z (oral), vehicle: water) is 100 % of control.

As to `O=Cc1cccn1-c1cccc2c(-n3cccc3C=O)cccc12`, the T/C by setting is: (dose: 25.0 mg/kg/injection, schedule: Q04DX002 (ip), vehicle: Klucel (hydroxypropylcellulose) (HPC)) 97 % of control; (dose: 50.0 mg/kg/injection, schedule: Q04DX002 (ip), vehicle: Klucel (hydroxypropylcellulose) (HPC)) 93 % of control; under setting [3], 97 % of control.

On to `CCN(CCNc1cc(C)nc(/N=C(\N)Nc2ccc(Cl)c(Cl)c2)n1)CC(C)(C)O`, for which the T/C was 93 % of control (dose: 75.0 mg/kg/injection, schedule: Q01DX001 (ip), vehicle: other); 95 % of control (dose: 150.0 mg/kg/injection, schedule: Q01DX001 (ip), vehicle: other); 104 % of control (dose: 300.0 mg/kg/injection, schedule: Q01DX001 (ip), vehicle: other).

Regarding `Cc1ccc2cccc(CC(=O)O)c2c1`, the T/C by setting is: (dose: 100.0 mg/kg/injection, schedule: Q01DX005 (ip), vehicle: saline with Tween-80) 104 % of control; under setting [4], 96 % of control; (dose: 200.0 mg/kg/injection, schedule: Q01DX005 (ip), vehicle: saline with Tween-80) 112 % of control; under setting [5], 96 % of control; (dose: 400.0 mg/kg/injection, schedule: Q01DX005 (ip), vehicle: saline with Tween-80) 108 % of control; (dose: 400.0 mg/kg/injection, schedule: Q01DX009 (ip), vehicle: saline with Tween-80) 115 % of control.

As for `CN1C2CC(=O)CC1C1CCC2C1`, the T/C (dose: 15.0 mg/kg/injection, schedule: Q01DX001 (ip), vehicle: carboxymethylcellulose (CMC)) is 103 % of control and the T/C (dose: 30.0 mg/kg/injection, schedule: Q01DX001 (ip), vehicle: carboxymethylcellulose (CMC)) was 101 % of control.

For `CCOc1ccc(N=Nc2c(O)n(-c3ccccc3)c(=S)n(-c3ccccc3)c2=O)cc1`, the T/C is, setting by setting: under setting [6], 96 % of control; under setting [7], 107 % of control; under setting [8], 100 % of control.

`CC1(C)C/C(=C\c2cccc([N+](=O)[O-])c2)C(=O)c2ccccc21`: the T/C by setting is: under setting [6], 94 % of control; under setting [7], 93 % of control; under setting [8], 94 % of control.

With `NC(=S)N/N=C/c1[nH]c(=O)[nH]c(=O)c1Br`, the T/C is 93 % of control under setting [1]; 97 % of control under setting [2]; 103 % of control (dose: 400.0 mg/kg/injection, schedule: Q01DX001 (ip), vehicle: saline with Tween-80).
